Results as given in article PMC7419507, “In vitro Cas9-assisted editing of modular polyketide synthase genes to produce desired natural product derivatives” (Nature Communications, 2020).
Several values for one entry are separate records, joined by “and”; a condition that tells them apart may be missing. Identical values can stand only once.

Columns and labels:
[1] = Cytotoxicity assay (CellTiter-Glo, 72 h), SKOV-3; type: cell-based, human; conditions: human, raw replicate data, read-out: SKOV3 viability (%)
How it was run: (§1)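 Following 4 h attachment at 1000 cells/well, the three lines received serially halved compound doses (DMSO 0.5%) for 72 h at 37 °C under 5% CO2, with cell viability then determined by CellTiter-Glo.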

[2] = test system: human ovarian adenocarcinoma SKOV-3 cells; test: Cytotoxicity assay (CellTiter-Glo, 72 h), SKOV-3; type: cell-based; conditions: raw replicate data
How it was run: as §1

[3] = Cytotoxicity assay (CellTiter-Glo, 72 h), MESO-1; type: cell-based; conditions: human, MESO-1 malignant pleural mesothelioma cells, raw replicate data, read-out: MESO1 viability (%)
How it was run: as §1

[4] = test system: malignant pleural mesothelioma MESO-1 cells; test: Cytotoxicity assay (CellTiter-Glo, 72 h), MESO-1; type: cell-based; conditions: raw replicate data
How it was run: as §1

[5] = test system: Jurkat, SKOV-3 and MESO-1 cells; test: Cytotoxicity assay, statements for all tested cell lines together; type: cell-based
How it was run: as §1

[6] = Cytotoxicity assay (CellTiter-Glo, 72 h), Jurkat; type: cell-based; conditions: human, Jurkat cells (T lymphoma), raw data (replicates)
How it was run: as §1

T lymphoma Jurkat cells = test: Cytotoxicity assay (CellTiter-Glo, 72 h), Jurkat; type: cell-based; conditions: raw data (replicates)
How it was run: as §1

COC1CC2CCC(C)C(O)(O2)C(=O)C(=O)N2CCCCC2C(=O)OC(C(C)CC2CCC(O)C(OC)C2)CC(=O)C(C)C=C(C)C(O)C(OC)C(=O)C(C)CC(C)C=CCCC=C1C (centres unmarked) [Compound 15, 19,20-dihidro-rapamycin]
viability at 72 h, 9.53674e-05 uM ([1]; SKOV-3 cells (ovarian adenocarcinoma), conc 9.53674e-5 uM): 106% | viability at 72 h, 0.000190735 uM ([1]; SKOV-3 cells (ovarian adenocarcinoma), conc 0.000190735 uM): 101% | viability at 72 h, 0.00038147 uM ([1]; SKOV-3 cells (ovarian adenocarcinoma), conc 0.00038147 uM): 102% | viability at 72 h, 0.000762939 uM ([1]; SKOV-3 cells (ovarian adenocarcinoma), conc 0.000762939 uM): 102% | viability at 72 h, 0.00152588 uM ([1]; SKOV-3 cells (ovarian adenocarcinoma), conc 0.00152588 uM): 105% | viability at 72 h, 0.00305176 uM ([1]; SKOV-3 cells (ovarian adenocarcinoma), conc 0.00305176 uM): 108% | viability at 72 h, 0.00610352 uM ([1]; SKOV-3 cells (ovarian adenocarcinoma), conc 0.00610352 uM): 104% | viability at 72 h, 0.012207 uM ([1]; SKOV-3 cells (ovarian adenocarcinoma), conc 0.012207 uM): 106% | viability at 72 h, 0.0244141 uM ([1]; SKOV-3 cells (ovarian adenocarcinoma), conc 0.0244141 uM): 102% | viability at 72 h, 0.0488281 uM ([1]; SKOV-3 cells (ovarian adenocarcinoma), conc 0.0488281 uM): 95.2% | viability at 72 h, 0.0976562 uM ([1]; SKOV-3 cells (ovarian adenocarcinoma), conc 0.0976562 uM): 99.4% | viability at 72 h, 0.195312 uM ([1]; SKOV-3 cells (ovarian adenocarcinoma), conc 0.195312 uM): 91% | viability at 72 h, 0.390625 uM ([1]; SKOV-3 cells (ovarian adenocarcinoma), conc 0.390625 uM): 84.3% | viability at 72 h, 12.5 uM ([1]; SKOV-3 cells (ovarian adenocarcinoma), conc 12.5 uM): 63.5% | viability at 72 h, 25 uM ([1]; SKOV-3 cells (ovarian adenocarcinoma), conc 25 uM): 51.1% | viability at 72 h, 50 uM ([1]; SKOV-3 cells (ovarian adenocarcinoma), conc 50 uM): 4% | viability at 72 h, 0.78125 uM ([1]; SKOV-3 ovarian adenocarcinoma cells, conc 0.78125 uM): 77.1% | viability at 72 h, 1.5625 uM ([1]; SKOV-3 ovarian adenocarcinoma cells, conc 1.5625 uM): 85.7% | viability at 72 h, 3.125 uM ([1]; SKOV-3 ovarian adenocarcinoma cells, conc 3.125 uM): 72.5% | viability at 72 h, 6.25 uM ([1]; SKOV-3 ovarian adenocarcinoma cells, conc 6.25 uM): 65.8% | SKOV3 viability (%) ([2]; conc 9.53674e-5 uM): 104.4% | SKOV3 viability (%) ([2]; conc 0.000190735 uM): 106.7% and 103.7% | SKOV3 viability (%) ([2]; conc 0.00038147 uM): 104.3% and 105.3% | SKOV3 viability (%) ([2]; conc 0.000762939 uM): 104.7% and 102.3% | SKOV3 viability (%) ([2]; conc 0.00152588 uM): 105.8% | SKOV3 viability (%) ([2]; conc 0.00610352 uM): 104.8% and 103.3% | SKOV3 viability (%) ([2]; conc 0.012207 uM): 100.2% and 102.5% | SKOV3 viability (%) ([2]; conc 0.0244141 uM): 99.1% and 104.1% | SKOV3 viability (%) ([2]; conc 0.0488281 uM): 98.9% and 94.0% | SKOV3 viability (%) ([2]; conc 0.0976562 uM): 97.9% and 101.5% | SKOV3 viability (%) ([2]; conc 0.195312 uM): 91.8% and 87.6% | SKOV3 viability (%) ([2]; conc 0.390625 uM): 93.7% and 87.4% | SKOV3 viability (%) ([2]; conc 0.78125 uM): 82.2% and 82.5% | SKOV3 viability (%) ([2]; conc 1.5625 uM): 81.5% and 77.5% | SKOV3 viability (%) ([2]; conc 3.125 uM): 73.9% and 77.4% | SKOV3 viability (%) ([2]; conc 6.25 uM): 68.2% and 74.1% | SKOV3 viability (%) ([2]; conc 12.5 uM): 67.0% and 61.2% | SKOV3 viability (%) ([2]; conc 25 uM): 54.3% and 53.4% | SKOV3 viability (%) ([2]; conc 50 uM): 3.9% and 4.5% | viability at 72 h, 9.53674e-05 uM ([3]; conc 9.53674e-5 uM): 94.1% | viability at 72 h, 0.000190735 uM ([3]; conc 0.000190735 uM): 92% | viability at 72 h, 0.00038147 uM ([3]; conc 0.00038147 uM): 98.8% | viability at 72 h, 0.000762939 uM ([3]; conc 0.000762939 uM): 93.3% | viability at 72 h, 0.00152588 uM ([3]; conc 0.00152588 uM): 97.7% | viability at 72 h, 0.00305176 uM ([3]; conc 0.00305176 uM): 89.3% | viability at 72 h, 0.00610352 uM ([3]; conc 0.00610352 uM): 90.8% | viability at 72 h, 0.012207 uM ([3]; conc 0.012207 uM): 87.6% | viability at 72 h, 0.0244141 uM ([3]; conc 0.0244141 uM): 92.1% | viability at 72 h, 0.0488281 uM ([3]; conc 0.0488281 uM): 82.9% | viability at 72 h, 0.0976562 uM ([3]; conc 0.0976562 uM): 81.6% | viability at 72 h, 0.195312 uM ([3]; conc 0.195312 uM): 70.6% | viability at 72 h, 0.390625 uM ([3]; conc 0.390625 uM): 78.2% | viability at 72 h, 0.78125 uM ([3]; conc 0.78125 uM): 66.4% | viability at 72 h, 1.5625 uM ([3]; conc 1.5625 uM): 69.2% | viability at 72 h, 3.125 uM ([3]; conc 3.125 uM): 67.6% | viability at 72 h, 6.25 uM ([3]; conc 6.25 uM): 68.9% | viability at 72 h, 12.5 uM ([3]; conc 12.5 uM): 63.9% | viability at 72 h, 50 uM ([3]; conc 50 uM): 0.6% | MESO1 viability (%) ([4]; conc 9.53674e-5 uM): 97.4% and 107.3% | MESO1 viability (%) ([4]; conc 0.000190735 uM): 96.0% and 92.6% | MESO1 viability (%) ([4]; conc 0.00038147 uM): 101.5% and 100.0% | MESO1 viability (%) ([4]; conc 0.000762939 uM): 86.7% and 94.3% | MESO1 viability (%) ([4]; conc 0.00152588 uM): 92.8% and 93.2% | MESO1 viability (%) ([4]; conc 0.00305176 uM): 90.6% | MESO1 viability (%) ([4]; conc 0.00610352 uM): 91.6% and 97.1% | MESO1 viability (%) ([4]; conc 0.012207 uM): 80.5% | MESO1 viability (%) ([4]; conc 0.0244141 uM): 89.5% and 86.4% | MESO1 viability (%) ([4]; conc 0.0488281 uM): 83.3% and 88.8% | MESO1 viability (%) ([4]; conc 0.0976562 uM): 82.7% and 83.7% | MESO1 viability (%) ([4]; conc 0.195312 uM): 70.8% and 80.6% | MESO1 viability (%) ([4]; conc 0.390625 uM): 69.4% and 71.4% | MESO1 viability (%) ([4]; conc 0.78125 uM): 68.2% and 67.7% | MESO1 viability (%) ([4]; conc 1.5625 uM): 70.1% and 68.2% | MESO1 viability (%) ([4]; conc 3.125 uM): 66.5% | MESO1 viability (%) ([4]; conc 6.25 uM): 67.5% and 68.1% | MESO1 viability (%) ([4]; conc 12.5 uM): 65.8% and 62.8% | MESO1 viability (%) ([4]; conc 25 uM): 15.9% and 37.2% and 39.7% | MESO1 viability (%) ([4]; conc 50 uM): 0.367% and 0.476% | Effect on cell viability, in words ([5]; Jurkat, SKOV-3 and MESO-1 cells, 72 h): slightly suppressed the cell viabilities | Cytostatic effect, fold lower than that of 1 ([5]; relative to rapamycin (1)): ~ 100 fold | viability at 72 h, 9.53674e-05 uM ([6]; conc 9.53674e-5 uM): 98.3% | viability at 72 h, 0.000190735 uM ([6]; conc 0.000190735 uM): 102% | viability at 72 h, 0.00038147 uM ([6]; conc 0.00038147 uM): 96.7% | viability at 72 h, 0.000762939 uM ([6]; conc 0.000762939 uM): 101% | viability at 72 h, 0.00152588 uM ([6]; conc 0.00152588 uM): 97.4% | viability at 72 h, 0.00305176 uM ([6]; conc 0.00305176 uM): 94.6% | viability at 72 h, 0.00610352 uM ([6]; conc 0.00610352 uM): 96.3% | viability at 72 h, 0.012207 uM ([6]; conc 0.012207 uM): 95.5% | viability at 72 h, 0.0244141 uM ([6]; conc 0.0244141 uM): 98.5% | viability at 72 h, 0.0488281 uM ([6]; conc 0.0488281 uM): 84.9% | viability at 72 h, 0.0976562 uM ([6]; conc 0.0976562 uM): 83.5% | viability at 72 h, 0.195312 uM ([6]; conc 0.195312 uM): 65.5% | viability at 72 h, 0.390625 uM ([6]; conc 0.390625 uM): 61.7% | viability at 72 h, 0.78125 uM ([6]; conc 0.78125 uM): 43.6% | viability at 72 h, 1.5625 uM ([6]; conc 1.5625 uM): 40.7% | viability at 72 h, 3.125 uM ([6]; conc 3.125 uM): 28.2% | viability at 72 h, 6.25 uM ([6]; conc 6.25 uM): 26.6% | viability at 72 h, 12.5 uM ([6]; conc 12.5 uM): 25.9% | viability at 72 h, 25 uM ([6]; conc 25 uM): 1% | Jurkat viability (%) (T lymphoma Jurkat cells; conc 9.53674e-5 uM): 103.4% and 100.1% | Jurkat viability (%) (T lymphoma Jurkat cells; conc 0.000190735 uM): 103.2% | Jurkat viability (%) (T lymphoma Jurkat cells; conc 0.00038147 uM): 100.9% and 97.1% | Jurkat viability (%) (T lymphoma Jurkat cells; conc 0.000762939 uM): 96.9% | Jurkat viability (%) (T lymphoma Jurkat cells; conc 0.00152588 uM): 95.1% and 104.8% | Jurkat viability (%) (T lymphoma Jurkat cells; conc 0.00305176 uM): 96.4% and 103.3% | Jurkat viability (%) (T lymphoma Jurkat cells; conc 0.00610352 uM): 98.6% and 98.2% | Jurkat viability (%) (T lymphoma Jurkat cells; conc 0.012207 uM): 89.1% and 95.4% | Jurkat viability (%) (T lymphoma Jurkat cells; conc 0.0244141 uM): 88.3% and 94.3% | Jurkat viability (%) (T lymphoma Jurkat cells; conc 0.0488281 uM): 80.5% and 86.7% | Jurkat viability (%) (T lymphoma Jurkat cells; conc 0.0976562 uM): 80.2% and 77.6% | Jurkat viability (%) (T lymphoma Jurkat cells; conc 0.195312 uM): 65.6% and 66.3% | Jurkat viability (%) (T lymphoma Jurkat cells; conc 0.390625 uM): 56.5% and 56.0% | Jurkat viability (%) (T lymphoma Jurkat cells; conc 0.78125 uM): 41.6% and 42.0% | Jurkat viability (%) (T lymphoma Jurkat cells; conc 1.5625 uM): 32.3% and 35.9% | Jurkat viability (%) (T lymphoma Jurkat cells; conc 3.125 uM): 27.6% and 27.0% | Jurkat viability (%) (T lymphoma Jurkat cells; conc 6.25 uM): 24.6% and 25.7% | Jurkat viability (%) (T lymphoma Jurkat cells; conc 12.5 uM): 23.9% and 25.0% | Jurkat viability (%) (T lymphoma Jurkat cells; conc 25 uM): 1.5% and 1.1% | Jurkat viability (%) (T lymphoma Jurkat cells; conc 50 uM): 0.429% and 0.113% and 0.047%
